Experimental data as given in patent US11725037B2, “Peptide dual agonists of GIPR and GLP2R” (University of Copenhagen, priority 2017, dated 2023).

Assays:
[1] = tested on: bone resorption (serum C-terminal cross-linking telopeptide of type I collagen, CTX); assay: Human study 1: bone resorption by serum CTX after subcutaneous injection of GIP or GLP-2; assay type: in vivo; details: for reduction in bone resorption (CTX): 200 μg GIP and 800 μg GLP-2, each alone, s.c., restated in Example 4; for bone resorption (CTX), maximum effect, % of base line: healthy young men
Procedure: Method: Eight healthy young men were enrolled. […] Participants arrived in the morning (fasted overnight) and received the injection around 8.30 a.m. Blood samples were collected before (−25 and −10 min) and every 30 minutes after injection (30, 60, 90, 120, 180 and 240 min). After last participant's last visit, bone resorption was determined by measurements of serum C-terminal cross-linking telopeptide of type I collagen (CTX; IDS Immunodiagnostic Systems GmbH, Frankfurt am Main, Germany)

human GIP receptor = target: T1, human GIP receptor (Homo sapiens, UniProt P48546); assay: cAMP accumulation assay (HitHunter cAMP XS) in transiently transfected COS-7 cells expressing the human GIP receptor; assay type: cell-based; details: for Emax at 10 µM: COS-7, read-out: Emax (10 μM), GIP receptor; for EC50: cAMP, COS-7
T1 construct: host or cells: COS-7 (transient, calcium phosphate; pCMV-Script vector)
T1 sequence (P48546 22-466): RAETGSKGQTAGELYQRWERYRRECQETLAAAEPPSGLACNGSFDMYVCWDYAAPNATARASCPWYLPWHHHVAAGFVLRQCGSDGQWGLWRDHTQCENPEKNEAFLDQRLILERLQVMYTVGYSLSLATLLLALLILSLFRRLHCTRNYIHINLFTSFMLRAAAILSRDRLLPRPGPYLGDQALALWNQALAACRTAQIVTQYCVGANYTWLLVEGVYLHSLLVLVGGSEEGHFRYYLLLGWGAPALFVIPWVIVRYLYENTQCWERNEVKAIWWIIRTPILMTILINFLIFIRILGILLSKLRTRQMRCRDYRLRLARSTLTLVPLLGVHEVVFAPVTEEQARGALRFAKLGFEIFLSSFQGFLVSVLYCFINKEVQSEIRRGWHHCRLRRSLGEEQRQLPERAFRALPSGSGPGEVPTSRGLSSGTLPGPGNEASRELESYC
Procedure: (§1) The day after, the cells were washed twice with Hepes buffered saline (HBS) buffer and incubated with HBS and 1 mM 3-isobutyl-1-methylxanthine (IBMX) for 30 min at 37° C. Ligands were added and incubated for 30 min at 37° C. The HitHunter™ cAMP XS assay (DiscoveRx) was carried out according to the manufacturer's instructions.

human GLP-2 receptor = target: T2, human GLP-2 receptor (Homo sapiens, UniProt O95838); assay: cAMP accumulation assay (HitHunter cAMP XS) in transiently transfected COS-7 cells expressing the human GLP-2 receptor; assay type: cell-based; details: for Emax at 10 µM: COS-7, read-out: Emax (10 μM), GLP-2 receptor; for logEC50, GLP-2 receptor: log value
T2 construct: host or cells: COS-7 (transient, calcium phosphate; pCMV-Script vector)
T2 sequence (O95838 1-553): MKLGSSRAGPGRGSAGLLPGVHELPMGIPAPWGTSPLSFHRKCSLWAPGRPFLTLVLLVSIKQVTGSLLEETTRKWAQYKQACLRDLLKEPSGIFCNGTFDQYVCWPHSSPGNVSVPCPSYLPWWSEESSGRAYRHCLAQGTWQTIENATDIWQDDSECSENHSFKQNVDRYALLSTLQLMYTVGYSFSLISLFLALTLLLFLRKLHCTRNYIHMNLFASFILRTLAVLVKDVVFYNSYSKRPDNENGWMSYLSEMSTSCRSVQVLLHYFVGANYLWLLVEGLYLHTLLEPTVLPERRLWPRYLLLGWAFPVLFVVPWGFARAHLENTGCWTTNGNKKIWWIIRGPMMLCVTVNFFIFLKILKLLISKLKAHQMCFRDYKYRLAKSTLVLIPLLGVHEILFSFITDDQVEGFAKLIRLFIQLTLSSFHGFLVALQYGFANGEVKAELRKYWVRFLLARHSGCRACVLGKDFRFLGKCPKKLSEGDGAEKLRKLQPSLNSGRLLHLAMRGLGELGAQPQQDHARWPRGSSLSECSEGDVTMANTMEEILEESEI
Procedure: as §1

[2] = tested on: mouse mesenchymal osteoblast precursor cell line KS483; assay: Osteoblast differentiation assay: intracellular alkaline phosphatase activity (ALP) at day 8; assay type: cell-based; details: 1 μM, day 8, KS483 cells, mean±sem, n=6
Procedure: Aim: Testing the effects of 2 test compounds on differentiation and activity of osteoblasts in vitro in a preliminary set-up.
Method: One concentration of each test compound (1 μM) is tested. Effects on osteoblast differentiation are studied using a mouse mesenchymal osteoblast precursor cell line KS483. The cells are cultured on plastic surface in 96-well plates for 8 days, allowing them to differentiate into mature bone-forming osteoblasts. Baseline with vehicle • 1. Compound 3: Vehicle • 2. Compound 5: GIP-GLP-2 agonist 3 (SEQ ID NO:3) • 3. Compound 6: GIP-GLP-2 agonist 19 (SEQ ID NO:19)
In osteoblast differentiation assay: Intracellular alkaline phosphatase activity (ALP) at day 8 as an index of the number of mature osteoblasts formed.

[3] = logEC50, GIP receptor, Table 1, log value

| Emax at 10 µM (human GIP receptor) | EC50 (human GIP receptor; EC50(nM), GIP receptor, Table 1) | Emax at 10 µM (human GLP-2 receptor) | potency and efficacy on the GLP-2R compared with native GLP-2, in words (human GLP-2 receptor; Table 1) | potency (and efficacy) on the GIP receptor compared with native GIP, in words (human GIP receptor; Table 1) | EC50 (human GIP receptor; [3]) | logEC50, GLP-2 receptor (human GLP-2 receptor; Table 1, cAMP, COS-7) | logEC50, GLP-2 receptor (human GLP-2 receptor; Table 2, cAMP, COS-7) | fold (fold change of native GLP-2), GLP-2 receptor (human GLP-2 receptor; Table 1, EC50 relative to native GLP-2) | EC50 (human GLP-2 receptor; logEC50, GLP-2 receptor, Table 1, cAMP, COS-7) | fold (fold change of native GIP), GIP receptor (human GIP receptor; Table 1, EC50 relative to native GIP) | SMILES | reduction in bone resorption (CTX) [1] | bone resorption (CTX), maximum effect, % of base line ([1]; human GLP-2 800 μg s.c., 180 min after administration) | ALP activity compared to vehicle [2] | bone resorption (CTX), maximum effect, % of base line ([1]; human GIP 200 μg s.c., 90 min after injection) |
| --- | --- | --- | --- | --- | --- | --- | --- | --- | --- | --- | --- | --- | --- | --- | --- |
| 22% | 56 nM |  |  |  |  |  |  |  |  |  | CC[C@H](C)[C@H](NC(=O)[C@H](Cc1ccccc1)NC(=O)[C@H](CC(=O)O)NC(=O)[C@H](CCCNC(=N)N)NC(=O)[C@H](C)NC(=O)[C@H](C)NC(=O)[C@H](CC(C)C)NC(=O)[C@H](CC(N)=O)NC(=O)[C@H](CC(=O)O)NC(=O)[C@H](CC(C)C)NC(=O)[C@@H](NC(=O)[C@@H](NC(=O)[C@H](CC(N)=O)NC(=O)[C@H](CCSC)NC(=O)[C@H](CCC(=O)O)NC(=O)[C@H](CC(=O)O)NC(=O)[C@H](CO)NC(=O)[C@H](Cc1ccccc1)NC(=O)[C@H](CO)NC(=O)CNC(=O)[C@H](CC(=O)O)NC(=O)[C@H](C)NC(=O)[C@@H](N)Cc1c[nH]cn1)[C@@H](C)O)[C@@H](C)CC)C(=O)N[C@@H](CC(N)=O)C(=O)N[C@@H](Cc1c[nH]c2ccccc12)C(=O)N[C@@H](CC(C)C)C(=O)N[C@H](C(=O)N[C@@H](CCC(N)=O)C(=O)N[C@H](C(=O)N[C@@H](CCCCN)C(=O)N[C@H](C(=O)N[C@H](C(=O)N[C@@H](CC(=O)O)C(=O)O)[C@@H](C)O)[C@@H](C)CC)[C@@H](C)O)[C@@H](C)CC [GLP-2, reference compound] | ~50% | 63.4±3.4 % of base line |  |  |
| 93% |  | 91% | almost the same potency and efficacy | almost the same potency and efficacy | 0.251 nM |  |  |  |  |  | CC[C@H](C)[C@H](NC(=O)[C@H](Cc1ccccc1)NC(=O)[C@H](CC(=O)O)NC(=O)[C@H](CCCNC(=N)N)NC(=O)[C@H](C)NC(=O)[C@H](C)NC(=O)[C@H](CC(C)C)NC(=O)[C@H](CC(N)=O)NC(=O)[C@H](CC(=O)O)NC(=O)[C@H](CC(C)C)NC(=O)[C@@H](NC(=O)[C@@H](NC(=O)[C@H](CO)NC(=O)[C@H](Cc1ccc(O)cc1)NC(=O)[C@H](CC(=O)O)NC(=O)[C@H](CO)NC(=O)[C@@H](NC(=O)[C@H](Cc1ccccc1)NC(=O)[C@@H](NC(=O)CNC(=O)[C@H](CC(=O)O)NC(=O)[C@H](C)NC(=O)[C@@H](N)Cc1c[nH]cn1)[C@@H](C)O)[C@@H](C)CC)[C@@H](C)O)[C@@H](C)CC)C(=O)N[C@@H](CC(N)=O)C(=O)N[C@@H](Cc1c[nH]c2ccccc12)C(=O)N[C@@H](CC(C)C)C(=O)N[C@H](C(=O)N[C@@H](CCC(N)=O)C(=O)N[C@H](C(=O)N[C@@H](CCCCN)C(=O)NCC(=O)N[C@@H](CCCCN)C(=O)N[C@@H](CCCCN)C(=O)O)[C@@H](C)O)[C@@H](C)CC [Co-agonist 19] |  |  | 115±8.9% |  |
|  |  |  |  |  |  | no activation | no activation |  |  |  | CC[C@H](C)[C@H](NC(=O)[C@H](CO)NC(=O)[C@H](Cc1ccc(O)cc1)NC(=O)[C@H](CC(=O)O)NC(=O)[C@H](CO)NC(=O)[C@@H](NC(=O)[C@H](Cc1ccccc1)NC(=O)[C@@H](NC(=O)CNC(=O)[C@H](CCC(=O)O)NC(=O)[C@H](C)NC(=O)[C@@H](N)Cc1ccc(O)cc1)[C@@H](C)O)[C@@H](C)CC)C(=O)N[C@@H](C)C(=O)N[C@@H](CCSC)C(=O)N[C@@H](CC(=O)O)C(=O)N[C@@H](CCCCN)C(=O)N[C@H](C(=O)N[C@@H](Cc1c[nH]cn1)C(=O)N[C@@H](CCC(N)=O)C(=O)N[C@@H](CCC(N)=O)C(=O)N[C@@H](CC(=O)O)C(=O)N[C@@H](Cc1ccccc1)C(=O)N[C@H](C(=O)N[C@@H](CC(N)=O)C(=O)N[C@@H](Cc1c[nH]c2ccccc12)C(=O)N[C@@H](CC(C)C)C(=O)N[C@@H](CC(C)C)C(=O)N[C@@H](C)C(=O)N[C@@H](CCC(N)=O)C(=O)N[C@@H](CCCCN)C(=O)NCC(=O)N[C@@H](CCCCN)C(=O)N[C@@H](CCCCN)C(=O)N[C@@H](CC(N)=O)C(=O)N[C@@H](CC(=O)O)C(=O)N[C@@H](Cc1c[nH]c2ccccc12)C(=O)N[C@@H](CCCCN)C(=O)N[C@@H](Cc1c[nH]cn1)C(=O)N[C@@H](CC(N)=O)C(=O)N[C@H](C(=O)N[C@H](C(=O)N[C@@H](CCC(N)=O)C(=O)O)[C@@H](C)O)[C@@H](C)CC)C(C)C)[C@@H](C)CC [GIP, reference compound] | ~50% |  |  | 56.2±11.2 % of base line |
| 100% |  | 100% |  | same potency as native GIP(1-42) | 0.107 nM |  |  | 18 fold | 21.4 nM | 1.2 fold | CC[C@H](C)[C@H](NC(=O)[C@H](Cc1ccccc1)NC(=O)[C@H](CC(=O)O)NC(=O)[C@H](CCCNC(=N)N)NC(=O)[C@H](C)NC(=O)[C@H](C)NC(=O)[C@H](CC(C)C)NC(=O)[C@H](CC(N)=O)NC(=O)[C@H](CC(=O)O)NC(=O)[C@H](CC(C)C)NC(=O)[C@@H](NC(=O)[C@@H](NC(=O)[C@H](CO)NC(=O)[C@H](Cc1ccc(O)cc1)NC(=O)[C@H](CC(=O)O)NC(=O)[C@H](CO)NC(=O)[C@@H](NC(=O)[C@H](Cc1ccccc1)NC(=O)[C@@H](NC(=O)CNC(=O)[C@H](CC(=O)O)NC(=O)[C@H](C)NC(=O)[C@@H](N)Cc1c[nH]cn1)[C@@H](C)O)[C@@H](C)CC)[C@@H](C)O)[C@@H](C)CC)C(=O)N[C@@H](CC(N)=O)C(=O)N[C@@H](Cc1c[nH]c2ccccc12)C(=O)N[C@@H](CC(C)C)C(=O)N[C@H](C(=O)N[C@@H](CCC(N)=O)C(=O)N[C@H](C(=O)N[C@@H](CCCCN)C(=O)N[C@H](C(=O)N[C@H](C(=O)N[C@@H](CC(=O)O)C(=O)O)[C@@H](C)O)[C@@H](C)CC)[C@@H](C)O)[C@@H](C)CC [Co-agonist 3] |  |  | 112±5.6% |  |
